SMILES strings stand for the structures.

One test has as its target MCH receptor (Homo sapiens, UniProt Q99705). The test is described as follows: High throughput functional screening FLIPR/FDSS6000: inhibition of MCH-evoked intracellular Ca2+ changes. The test is classed as cell-based. As to conditions: class by percent of control at 10^-7 M or IC50. Put shortly:
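Constitutively active non-endogenous MCH-R cells; Fluo4-AM 4 μM, 2.5 mM probenecid, 1 hr, 37° C; cpd 3 min, 37° C; MCH 50 nM (antagonist mode); kinetic Ca2+ read Ex488/Em530, 290 s.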
Take `CN(C)c1nc(N[C@H]2CC[C@@H](NC(=S)Nc3cccc(SC(F)(F)F)c3)CC2)nc2ccccc12` [compound 222]: the class is on record as 3 (Class 3: The value of percent of control at 10^−7 M was more than 60% or the value of IC50 was more than 200 nM.).

For the compound `COc1ccc([N+](=O)[O-])cc1NC(=S)N[C@H]1CC[C@@H](Nc2nc(N(C)C)c3ccccc3n2)CC1` [compound 301], the class was 3 (Class 3: The value of percent of control at 10^−7 M was more than 60% or the value of IC50 was more than 200 nM.).

On to `CN(C)c1nc(N[C@H]2CC[C@@H](CNC(=O)Nc3ccccc3C#N)CC2)nc2ccccc12` [compound 760], for which the class is 3 (Class 3: The value of percent of control at 10^−7 M was more than 60% or the value of IC50 was more than 200 nM.).

In the case of `CN(C)c1nc(N[C@H]2CC[C@@H](CNC(=O)Nc3ccc(SC(F)(F)F)cc3)CC2)nc2ccccc12` [compound 537], the class is on record as 3 (Class 3: The value of percent of control at 10^−7 M was more than 60% or the value of IC50 was more than 200 nM.).

For `CN(C)c1nc(N[C@H]2CC[C@@H](NC(=S)NCc3cccc(F)c3)CC2)nc2ccccc12` [compound 308, N-(cis-4-{[4-(dimethylamino)quinazolin-2-yl]amino}cyclohexyl)-N′-(3-fluorobenzyl)thiourea], the class was 2 (Class 2: The value of percent of control at 10^−7 M was from 40% to 60% or the value of IC50 was from 50 nM to 200 nM.).

For `CCOc1ccccc1NC(=S)NC[C@H]1CC[C@@H](Nc2nc(N(C)C)c3ccccc3n2)CC1` [compound 786, N-[(cis-4-{[4-(dimethylamino)quinazolin-2-yl]amino}cyclohexyl)methyl]-N′-(2-ethoxyphenyl)thiourea], the class is 2 (Class 2: The value of percent of control at 10^−7 M was from 40% to 60% or the value of IC50 was from 50 nM to 200 nM.).

Regarding `CSc1ccccc1NC(=S)NC[C@H]1CC[C@@H](Nc2nc(N(C)C)c3ccccc3n2)CC1` [compound 630], the class is 3 (Class 3: The value of percent of control at 10^−7 M was more than 60% or the value of IC50 was more than 200 nM.).

For `CCc1cccc(NC(=S)NC[C@H]2CC[C@@H](Nc3nc(N(C)C)c4ccccc4n3)CC2)c1` [compound 731], the class is listed as 3 (Class 3: The value of percent of control at 10^−7 M was more than 60% or the value of IC50 was more than 200 nM.).

`CN(C)c1nc(N[C@H]2CC[C@@H](CNC(=S)Nc3ccc(C(C)(C)C)cc3)CC2)nc2ccccc12` [compound 796]: the class is listed as 3 (Class 3: The value of percent of control at 10^−7 M was more than 60% or the value of IC50 was more than 200 nM.).

Consider `CN(C)c1nc(N[C@H]2CC[C@@H](NC(=S)Nc3cc(Cl)cc(Cl)c3)CC2)nc2ccccc12` [compound 223], for which the class is recorded as 3 (Class 3: The value of percent of control at 10^−7 M was more than 60% or the value of IC50 was more than 200 nM.).

For `C#CCNC(=S)NC[C@H]1CC[C@@H](Nc2nc(N(C)C)c3ccccc3n2)CC1` [compound 777], the class is 3 (Class 3: The value of percent of control at 10^−7 M was more than 60% or the value of IC50 was more than 200 nM.).

Take `CN(C)c1nc(N[C@H]2CC[C@@H](CNC(=S)NC3CC3)CC2)nc2ccccc12` [compound 712]: the class was 3 (Class 3: The value of percent of control at 10^−7 M was more than 60% or the value of IC50 was more than 200 nM.).

On to `CCCCCCCCCCc1ccc(NC(=S)N[C@H]2CC[C@@H](Nc3nc(N(C)C)c4ccccc4n3)CC2)cc1` [compound 315], for which the class is 3 (Class 3: The value of percent of control at 10^−7 M was more than 60% or the value of IC50 was more than 200 nM.).

On to `Cc1cc(NC(=O)NC[C@H]2CC[C@@H](Nc3nc(N(C)C)c4ccccc4n3)CC2)c([N+](=O)[O-])cc1C` [compound 538], for which the class was 2 (Class 2: The value of percent of control at 10^−7 M was from 40% to 60% or the value of IC50 was from 50 nM to 200 nM.).

Consider `CC(NC(=O)NCC1CCC(Nc2nc(N(C)C)c3ccccc3n2)CC1)c1cccc2ccccc12` (stereo not drawn) [compound 467], for which the class is recorded as 2 (Class 2: The value of percent of control at 10^−7 M was from 40% to 60% or the value of IC50 was from 50 nM to 200 nM.).

Turning to `Cc1cccc(CNC(=S)NC[C@H]2CC[C@@H](Nc3nc(N(C)C)c4ccccc4n3)CC2)c1` [compound 734], the class is 3 (Class 3: The value of percent of control at 10^−7 M was more than 60% or the value of IC50 was more than 200 nM.).

Take `CCCCc1ccc(NC(=S)NC[C@H]2CC[C@@H](Nc3nc(N(C)C)c4ccccc4n3)CC2)cc1` [compound 705]: the class is 3 (Class 3: The value of percent of control at 10^−7 M was more than 60% or the value of IC50 was more than 200 nM.).

Staying with this test, now noted: class by percent of control at 10^-7 M or by IC50; read-out: class.
Regarding `COc1ccc(CNC(=O)N[C@H]2CC[C@@H](Nc3nc(N(C)C)c4ccccc4n3)CC2)cc1` [compound 48, N-(cis-4-{[4-(dimethylamino)quinazolin-2-yl]amino}cyclohexyl)-N′-(4-methoxybenzyl)urea], the IC50 lay in the range of 50 to 200 nM.

Regarding `CN(C)c1nc(N[C@H]2CC[C@@H](NC(=O)Nc3cc([N+](=O)[O-])ccc3Cl)CC2)nc2ccccc12` [compound 88], the IC50 fell in the range of 50 to 200 nM.

As for `COc1cc([N+](=O)[O-])ccc1NC(=O)N[C@H]1CC[C@@H](Nc2nc(N(C)C)c3ccccc3n2)CC1` [compound 104, N-(cis-4-{[4-(dimethylamino)quinazolin-2-yl]amino}cyclohexyl)-N′-(2-methoxy-4-nitrophenyl)urea], the IC50 fell in the range of 50 to 200 nM.

As to `CC(NC(=O)N[C@H]1CC[C@@H](Nc2nc(N(C)C)c3ccccc3n2)CC1)c1ccccc1` (relative stereo) [compound 65, N-(cis-4-{[4-(dimethylamino)quinazolin-2-yl]amino}cyclohexyl)-N′-(1-phenylethyl)urea], the IC50 was < 50 nM.

Take `COc1ccc(NC(=O)N[C@H]2CC[C@@H](Nc3nc(N(C)C)c4ccccc4n3)CC2)cc1Cl` [compound 131, N-(3-chloro-4-methoxyphenyl)-N′-(cis-4-{[4-(dimethylamino)quinazolin-2-yl]amino}cyclohexyl)urea]: the IC50 is < 50 nM.

Take `CN(C)c1nc(N[C@H]2CC[C@@H](NC(=O)Nc3c(F)cc(Br)cc3F)CC2)nc2ccccc12` [compound 142, N-(4-bromo-2,6-difluorophenyl)-N′-(cis-4-{[4-(dimethylamino)quinazolin-2-yl]amino}cyclohexyl)urea]: the IC50 was < 50 nM.

Take `COc1cc(OC)c(NC(=O)N[C@H]2CC[C@@H](Nc3nc(N(C)C)c4ccccc4n3)CC2)cc1Cl` [compound 834, N-(5-chloro-2,4-dimethoxyphenyl)-N′-(cis-4-{[4-(dimethylamino)quinazolin-2-yl]amino}cyclohexyl)urea]: the IC50 was < 50 nM.

As to `CC(C)c1cccc(C(C)C)c1NC(=O)N[C@H]1CC[C@@H](Nc2nc(N(C)C)c3ccccc3n2)CC1` [compound 68], the IC50 was > 200 nM.

In the case of `CCOC(=O)c1c(NC(=S)NC[C@H]2CC[C@@H](Nc3nc(N(C)C)c4ccccc4n3)CC2)sc2c1CCCC2` [compound 801, ethyl 2-[({[(cis-4-{[4-(dimethylamino)quinazolin-2-yl]amino}cyclohexyl)methyl]amino}carbonothioyl)amino]-4.5.6.7-tetrahydro-1-benzothiophene-3-carboxylate], the IC50 is > 200 nM.

Still in this test, the particulars now being: class by percent of control at 10^−7 M or by IC50; read-out: class.
On to `CN(C)c1nc(N[C@H]2CC[C@@H](CNC(=O)Nc3ccc(Cl)cc3Cl)CC2)nc2ccccc12` [Example 1029, N-(2,4-dichlorophenyl)-N′-[(cis-4-{[4-(dimethylamino)quinazolin-2-yl]amino}cyclohexyl)methyl]urea], for which the IC50 is 50 to 200 nM.

The record behind these values is US20070010671A1, “Novel quinazoline derivatives and methods of treatment related to the use thereof” (priority 2003, published 2007).
